The target in data set [1] is T1, recombinant LmigCSPIII (Locusta migratoria, UniProt Q3LB86). Nature of the data set: Fluorescent competitive binding assay with 1-NPN as reporter. The following applies: for binding affinity to LmigCSPIII (in words): among 78 tested compounds. The protocol: Compounds (Table 2) used in the binding assay were purchased from Sigma (St. Louis, MO, USA) and were of reagent grade. Ligand binding specificity was measured with a fluorescent assay on an FS-55 emission fluorescence spectrometer (Perkin-Elmer, Waltham, MA, USA), as previously described. […] The recombinant protein was dissolved in 50 mM Tris-Buffer (pH 7.4) and titrated with aliquots of 1 mM methanol solutions of the ligands to final concentrations of […]. The florescent probe 1-NPN was excited at 337 nm and emission spectra were recorded between 380 nm and 440 nm. We used Graphpad Prism 5 software (Graphpad Software, San Diego, CA, USA) to calculate dissociation constants and draw the binding curves.

Data set [2] concerns the target T1, recombinant LmigCSPIII. The data set is described as above. The following applies: at a concentration of 10 µM.
Data set [3] deals with Locusta migratoria fourth instar nymphs. Nature of the data set: Dual-choice feeding assay, feeding response with intact or excised antennae. In kind it is in vivo. The protocol: For the role of antenna or mouthparts in the detection of AMCAL, a dual-choice experiment was performed. Newly molted fourth instar locusts of similar weights were anesthetized on ice for several minutes. Antennae were carefully removed with fine scissors, and then the locusts were fed with fresh corn leaves for 24 h. The locusts were then placed in feeding boxes, each of which contained two pieces of corn leaves of the same size of 4 × 3 cm, one treated with AMCAL in solvent, and the other one treated with solvent alone. The two pieces of corn leaves were placed about 12 cm apart. Feeding response (FR) was defined as follows: a leaf that was ingested, regardless of amount, was scored as 1, whereas no consumption was scored as 0. The experimental duration was about 1 h. When approximately 50% of the control foliage had been consumed, the experiment was terminated, and the feeding amount was determined as described above.

Data set [4] shares this test system. Nature of the data set: Feeding bioassay: amount consumed and feeding deterrence index. In kind it is in vivo. The procedure:
New emerged fourth instar locust nymphs were starved 2 h before being introduced into a transparent plastic box (14 cm diameter, 8 cm high). For the non-choice experiment, the locusts were then supplied with two pieces of corn leaf (3 × 5 cm) of the same weight. One piece of the leaf was treated with an acetone solution of α-amylcinnamaldehyde (AMCAL) after the acetone evaporated completely, and the control leaf was just treated with same amount of actone. The natural concentrations of AMCAL found in non-host plants is usually less than 0.1% in weight. According to this, acetone solutions of AMCAL at concentrations of […] were used to treat corn leaves with a final concentration of 100 μg/cm^2, 50 μg/cm^2, 10 μg/cm^2, or 1 μg/cm^2, respectively.
Food consumption (S) was determined by the fresh/dry weight method as follows: a fresh corn leaf was cut in half from the main vein and weighted separately; one half was dried at 100 °C for 2 h to calculate fresh/dry weight ratio, calculated as R [34]; the other half, whose fresh weight was S1, was reserved for the feeding experiment. After feeding duration, the residual consumed leaf was dried and weighed as above, and the dry weight was labelled as S2. Food consumption was calculated as: S = S1/R − S2.
(§1) For the dual-choice experiment, the feeding deterrence index (FDI) was calculated using the formula: FDI = (C − T)/(C + T), where C and T indicated control and treated leaf consumption weights, respectively. For non-choice experiment, the FDI was calculated using the formula: FDI = (C − T)/C. A regression curve line against feeding deterrence index was created by Graphpad Prism 9 software (Graphpad Software, San Diego, CA, USA). The DC50 was defined as the concentration of AMCAL that halved the value of the feeding deterrence index.

The test system is the same in data set [5]. Nature of the data set: Dual-choice feeding assay with LmigCSPIII knockdown (dsRNA) and H2O-injected locusts. In kind it is in vivo. The procedure:
as §1
Double-stranded RNA was synthesized using the T7 RiboMAX™Express RNAi System (Promega, Madison, WI, USA), according to the manufacturer’s protocol. Briefly, we designed degenerate primers with a T7 promoter (Table 1) at the 5′ end based on an alignment of multiple LmigCSPIII sequences. The PCR-amplified fragment was purified and used as a template in the transcription reactions. After removing the DNA template and single-stranded RNA using a nuclease, we quantified the newly synthesized dsRNA and adjusted its concentration to 2.5 µg/µL. Locusts were anaesthetized on ice for easier handling during the injection process. dsRNA (2 µL) or DEPC (Diethy Pyrocarbonate) treated water (2 µL, Sangon Biotech) was injected into the dorsal intrasegmental membrane between the third and fourth abdominal segments of newly-molted third or fourth instar locusts using a microsyringe (Narishige, Tokyo, Japan), similarly to previous experiments.
The treatments and calculation methods for detecting the effects of suppression of LmigCSPIII on locusts are similar to in the dual-choice experiment.
To determine the effects of RNAi of LmigCSPIII on its role in detecting AMCAL, we created mutants by injecting with dsRNA of LmigCSPIII into fourth instar nymphs within 2 days after molting. These locusts were then provided with the corn leaves treated with AMCAL or solvent 72 h after injection. The duration of the experiment was 2 h.

Data set [6] has as its system Locusta migratoria nymphs. Particulars: third instar, 100 μg/cm^2, after 3 or 4 days, vs control, p < 0.001.
Another data set has as its system desert locust. Set-up: method as in PMID 12770479. The following applies: 7 µg/g body weight; cited from earlier work.
The mark [7] stands for this setting: criterion for being regarded as able to bind, Figure 4, read-out: IC50 (concentration of ligand that halved the initial fluorescence of 1-NPN).

Structures are written as SMILES. Entries after “also recorded” stand apart in the source; their conditions may differ. Read-outs that look alike come from different tables or passages of the source.

T1 sequence (Q3LB86 entry or part of it): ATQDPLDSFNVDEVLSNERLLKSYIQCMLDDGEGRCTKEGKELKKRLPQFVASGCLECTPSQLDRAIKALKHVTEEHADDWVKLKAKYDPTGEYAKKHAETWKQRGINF

As for `CC(O)c1ccccc1` (racemic) [DL-sec-phenethyl alcohol], the IC50 on recombinant LmigCSPIII [1] (setting [7]) was < 20 µM.

In the case of `c1ccc(Nc2cccc3ccccc23)cc1` [1-NPN, N-phenyl-1-naphthylamine, reference compound], the Kd – broadly, the free concentration of one partner at which half of the binding sites on the other are occupied at equilibrium, for simple one-to-one binding – on recombinant LmigCSPIII [1] is 3.3 µM.

With `Nc1cccc2cc3ccccc3cc12` [1-aminoanthracene], the “binding affinity to LmigCSPIII (in words)” value (“binding affinity” below) at recombinant LmigCSPIII [1] is listed as “strongest affinity”.

`Cc1cnc(C)cn1` [2,5-Dimetylpyrazine]: the IC50 at recombinant LmigCSPIII [1] (setting [7]) is < 20 µM.

On to `CCCCCC(C)=O` [2-heptanone], for which the IC50 on recombinant LmigCSPIII [1] (setting [7]) was < 20 µM. Also, the “displacement of 1-NPN from LmigCSPIII” value at recombinant LmigCSPIII [2] is on record as “able to displace 1-NPN”.

`CC(C)CCO` [3-Methyl-1-butanol]: on recombinant LmigCSPIII [1] (calculated from IC50 of 1-NPN displacement, read-out: dissociation constant (KD) of competitor), the equilibrium dissociation constant (Kd) is 6.02 ± 0.17 µM. In addition, at recombinant LmigCSPIII [1] (setting [7]), the IC50 is < 20 µM.

As for `CCCCC/C(C=O)=C/c1ccccc1` [AMCAL, α-amylcinnamaldehyde], at recombinant LmigCSPIII [1], the “binding affinity” value is “strongest affinity; also recorded: highest affinity”. In addition, at recombinant LmigCSPIII [1] (setting [7]), the IC50 is < 20 µM. In addition, the “Feeding response (FR) to treated leaves” value is reported as 45% in data set [3] (50 μg/cm^2, antennae excised) and 47% in data set [3] (50 μg/cm^2, antennae intact). Besides, the “mean consumption of food containing the chemical” value in data set [4] (1 μg/cm^2, p > 0.05, Dunnett test) is “slight and insignificant decrease”; in data set [4] (10 μg/cm^2, p < 0.01, Dunnett test), “Significant feeding inhibition”. Moreover, in data set [4] (from regression curve of feeding deterrence index, Figure 5D), the “DC50 (concentration that halved the feeding deterrence index)” value turned out to be 12 μg/cm^2. Moreover, the “feeding deterrence index (FDI)” value in data set [5] (1 μg/cm^2, RNAi group) is −2%; in data set [5] (10 μg/cm^2, control group (H2O-injected locusts)) it was 50%; in data set [5] (10 μg/cm^2, locusts injected with dsRNA of LmigCSPIII) it was 22%; in data set [5] (50 μg/cm^2, RNAi group), 69%. Also, the “weight increase of nymphs” value in data set [6] is reported as “significantly less than that of the control group”.

As to `O=Cc1ccccc1` [Benzaldehyde], the IC50 at recombinant LmigCSPIII [1] was < 20 µM.

Regarding `N#CCc1ccccc1` [Benzeneacetonitrile], the IC50 at recombinant LmigCSPIII [1] was < 20 µM.

Regarding `OC1CCCCC1` [Cyclohexanol], the IC50 on recombinant LmigCSPIII [1] is < 20 µM.

Take `CCCCOC(=O)c1ccccc1C(=O)OCCCC` [Dibutyl phthalate]: at recombinant LmigCSPIII [1], the IC50 is < 20 µM.

On to `CCOC(=O)c1ccccc1C(=O)OCC` [Diethyl phthalate], for which the IC50 at recombinant LmigCSPIII [1] is < 20 µM.

On to `C=C(C)C(=O)OCCCCCCCCCCCC` [Dodecyl 2-methylacrylate], for which the IC50 at recombinant LmigCSPIII [1] (setting [7]) is < 20 µM.

For `COc1ccccc1O` [Guaicacol], on recombinant LmigCSPIII [1] (setting [7]), the IC50 is < 20 µM.

As for `CCCCCCCCCCCCCCCCCO` [Heptadecanol], the IC50 at recombinant LmigCSPIII [1] (setting [7]) was < 20 µM.

As to `CCCCCCCCCCCCCCCCO` [Hexadecanol], the IC50 on recombinant LmigCSPIII [1] (setting [7]) is < 20 µM.

For `CCCCCCCCCCCCCCCO` [Pentadecanol], the IC50 on recombinant LmigCSPIII [1] (setting [7]) was < 20 µM.

Regarding `Oc1ccccc1` [Phenol], on recombinant LmigCSPIII [1], the IC50 is < 20 µM.

Take `C/C=C(\C)C(=O)O[C@H]1C[C@@H](OC(C)=O)[C@@]2(C(=O)OC)CO[C@H]3[C@@H](O)[C@@](C)([C@]45O[C@@]4(C)[C@H]4C[C@@H]5O[C@@H]5OC=C[C@@]54O)[C@H]4[C@]1(CO[C@]4(O)C(=O)OC)[C@@H]32` [azadirachtin]: the “physiological effects in the desert locust” value in the data set with desert locust was “reduces fitness and fertility, and interferes with molting”.

As to `CCCCCCCC/C=C\CCCCCCCC(N)=O` [oleamide, Oleamide], on recombinant LmigCSPIII [1], the IC50 is < 20 µM and the “binding affinity” value is “quite high binding affinity”.

`CCC/C=C/C=O` [trans-2-hexenal, trans-2-Hexenal]: the IC50 on recombinant LmigCSPIII [1] is < 20 µM. Besides, at recombinant LmigCSPIII [2], the “displacement of 1-NPN from LmigCSPIII” value is given as “able to displace 1-NPN”.

The record behind these values is article PMC7822123, “A Chemosensory Protein Detects Antifeedant in Locust (Locusta migratoria)” (Insects, 2020).
